Data from ChEMBL document CHEMBL5352412, “Discovery of 1,2-diphenylethene derivatives as human DNA topoisomerase II catalytic inhibitors and antitumor agents” (Eur J Med Chem, 2022).

How the values were obtained:
[1] = Selectivity index, ratio of IC50 for human HL-7702 cells to IC50 for human PC-3 cells; type: toxicity; conditions: HL-7702 cells versus PC-3 cells, read-out: Ratio IC50
HepG2 [2] = assay: Induction of cell cycle arrest in human HepG2 cells assessed as accumulation of cells at G1 phase at 0.5 uM incubated for 24 hrs by PI staining based flow cytometry analysis (reference value: 54%); type: functional
HepG2 [3] = assay: Induction of cell cycle arrest in human HepG2 cells assessed as accumulation of cells at G1 phase at 1 uM incubated for 24 hrs by PI staining based flow cytometry analysis (reference value: 54%); type: functional
[4] = Selectivity index, ratio of IC50 for human BEAS-2B cells to IC50 for human MDA-MB-231 cells; type: toxicity; conditions: BEAS-2B cells versus MDA-MB-231 cells, read-out: Ratio IC50
[5] = molecular target: T1, DNA topoisomerase 2-alpha (Homo sapiens, UniProt P11388); assay: Inhibition of human topoisomerase 2-alpha assessed as reduction in relaxation of pBR322 DNA at 25 uM measured after 30 mins by agarose gel electrophoresis method relative to control
T1 sequence (P11388 whole entry): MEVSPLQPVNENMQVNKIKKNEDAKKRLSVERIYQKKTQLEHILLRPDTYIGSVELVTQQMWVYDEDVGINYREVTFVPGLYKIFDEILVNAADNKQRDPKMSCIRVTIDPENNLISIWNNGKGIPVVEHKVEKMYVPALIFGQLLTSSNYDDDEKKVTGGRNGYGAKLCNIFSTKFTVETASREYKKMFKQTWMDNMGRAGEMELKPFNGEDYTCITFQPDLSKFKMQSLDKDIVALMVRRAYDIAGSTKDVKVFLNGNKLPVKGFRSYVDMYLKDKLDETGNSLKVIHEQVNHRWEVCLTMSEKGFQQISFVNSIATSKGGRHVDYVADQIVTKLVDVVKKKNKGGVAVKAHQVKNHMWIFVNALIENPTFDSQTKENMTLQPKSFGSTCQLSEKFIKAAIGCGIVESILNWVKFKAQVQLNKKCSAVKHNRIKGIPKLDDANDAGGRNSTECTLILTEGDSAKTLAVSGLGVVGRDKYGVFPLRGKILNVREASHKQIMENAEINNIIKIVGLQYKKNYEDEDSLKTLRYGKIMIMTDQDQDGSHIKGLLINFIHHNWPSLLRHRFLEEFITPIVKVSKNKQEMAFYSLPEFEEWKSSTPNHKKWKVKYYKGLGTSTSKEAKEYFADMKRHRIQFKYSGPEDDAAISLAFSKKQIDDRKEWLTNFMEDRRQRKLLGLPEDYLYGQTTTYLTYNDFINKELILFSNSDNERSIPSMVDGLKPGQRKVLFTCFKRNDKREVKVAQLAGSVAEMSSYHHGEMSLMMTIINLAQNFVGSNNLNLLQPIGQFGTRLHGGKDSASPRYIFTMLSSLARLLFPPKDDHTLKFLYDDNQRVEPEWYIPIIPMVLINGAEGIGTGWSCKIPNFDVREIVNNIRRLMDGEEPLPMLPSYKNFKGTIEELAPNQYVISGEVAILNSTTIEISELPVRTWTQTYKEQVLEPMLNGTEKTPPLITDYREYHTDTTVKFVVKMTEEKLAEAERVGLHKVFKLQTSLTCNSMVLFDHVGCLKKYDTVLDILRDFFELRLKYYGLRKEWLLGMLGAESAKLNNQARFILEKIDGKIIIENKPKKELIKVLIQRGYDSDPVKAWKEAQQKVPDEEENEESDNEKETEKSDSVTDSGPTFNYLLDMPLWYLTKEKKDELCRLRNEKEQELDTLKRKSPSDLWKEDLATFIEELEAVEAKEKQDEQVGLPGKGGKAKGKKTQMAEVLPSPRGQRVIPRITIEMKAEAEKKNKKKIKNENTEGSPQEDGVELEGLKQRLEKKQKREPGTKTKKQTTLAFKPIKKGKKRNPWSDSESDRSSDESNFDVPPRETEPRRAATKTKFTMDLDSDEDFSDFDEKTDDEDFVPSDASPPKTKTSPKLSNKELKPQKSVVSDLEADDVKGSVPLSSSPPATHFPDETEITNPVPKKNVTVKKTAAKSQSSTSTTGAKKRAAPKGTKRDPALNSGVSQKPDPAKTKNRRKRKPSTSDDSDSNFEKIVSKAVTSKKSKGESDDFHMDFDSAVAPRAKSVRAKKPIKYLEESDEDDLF

[6] = Selectivity index, ratio of IC50 for human BEAS-2B cells to IC50 for human HeLa cells; type: toxicity; conditions: BEAS-2B cells versus HeLa cells, read-out: Ratio IC50
[7] = Antiproliferative activity against human HL7702 cells incubated for 72 hrs by CCK8 assay; type: toxicity, cell-based; conditions: HL7702 (L02) cells
Homo sapiens = species on record: Homo sapiens; assay: Selectivity index, ratio of IC50 for human CCL-226 cells to IC50 for human A549 cells
HepG2 [8] = assay: Induction of apoptosis in human HepG2 cells assessed as viable cells at 0.5 uM incubated for 24 hrs by annexin-V FITC and PI staining based flow cytometry analysis (reference value: 93.8%); type: functional; conditions: read-out: Activity
HepG2 [9] = assay: Induction of apoptosis in human HepG2 cells assessed as viable cells at 1 uM incubated for 24 hrs by annexin-V FITC and PI staining based flow cytometry analysis (reference value: 93.8%); type: functional; conditions: read-out: Activity
[10] = Selectivity index, ratio of IC50 for human HL-7702 cells to IC50 for human HeLa cells; type: toxicity; conditions: HL-7702 cells versus HeLa cells, read-out: Ratio IC50
HepG2 [11] = assay: Induction of apoptosis in human HepG2 cells assessed as early apoptotic cells at 0.5 uM incubated for 24 hrs by annexin-V FITC and PI staining based flow cytometry analysis (reference value: 3.7%); type: functional
[12] = molecular target: T1, DNA topoisomerase 2-alpha; assay: Inhibition of human topoisomerase 2-alpha using pBR322 DNA as substrate incubated for 1 hr in presence of ATP by malachite green phosphate method

inhibition [5]: 84.6%
Ratio IC50 (Homo sapiens): > 52.1
inhibition [12]: Dose-Dependent Effect
Compound: O=C(CCc1ccccc1)Nc1ccc(-c2ccc3cc(O)ccc3c2)cc1
selectivity ratio [1]: > 52.1
Activity (HepG2 [2]): 19%
Activity (HepG2 [3]): 3.3%
selectivity ratio [4]: > 52.1
selectivity ratio [6]: > 52.1
IC50 at 72 h [7]: 16.7 µM
viability at 0.5 µM (HepG2 [8]): 72.5%
viability at 1 µM (HepG2 [9]): 29.2%
selectivity ratio [10]: > 52.1
Activity (HepG2 [11]): 14%
